The target in this test is T1, β-glucocerebrosidase (GCase) (Homo sapiens, UniProt P04062).
T1 construct: gene GBA1
T1 sequence (P04062 40-536): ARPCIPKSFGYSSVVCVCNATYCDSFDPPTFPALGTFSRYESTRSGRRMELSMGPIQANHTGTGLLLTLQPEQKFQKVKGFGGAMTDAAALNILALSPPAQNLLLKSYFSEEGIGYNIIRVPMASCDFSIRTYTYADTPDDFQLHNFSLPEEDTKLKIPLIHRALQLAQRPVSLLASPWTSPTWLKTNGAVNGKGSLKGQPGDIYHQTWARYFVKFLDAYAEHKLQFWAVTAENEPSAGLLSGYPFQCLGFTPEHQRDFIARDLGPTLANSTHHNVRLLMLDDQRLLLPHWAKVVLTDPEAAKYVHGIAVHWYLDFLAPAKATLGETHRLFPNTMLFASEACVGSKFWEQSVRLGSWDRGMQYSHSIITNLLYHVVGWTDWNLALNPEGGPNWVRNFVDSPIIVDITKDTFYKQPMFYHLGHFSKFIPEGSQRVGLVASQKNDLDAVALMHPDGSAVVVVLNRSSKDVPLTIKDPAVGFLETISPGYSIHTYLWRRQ
Kind of test: biochemical.

For the compound `OCCOCCN1CCN(C2=Nc3ccccc3Sc3ccccc32)CC1` [quetiapine], the Kd was 5 µM.

The Kd is a measure of binding affinity in units of concentration. Lower therefore signals higher affinity.

Source of the values: article PMC8525588, “Direct targeting of wild-type glucocerebrosidase by antipsychotic quetiapine improves pathogenic phenotypes in Parkinson’s disease models” (JCI Insight, 2021).
